Structures can show the parent of a compound that is named as a salt.
Legend:
[1] = test system: PLP-139-151 induced EAE; assay: Mouse experimental autoimmune encephalomyelitis (EAE) model; assay type: in vivo, SJL/J mice
[2] = test system: DNBS-induced colitis; assay: DNBS-induced colitis in rat; assay type: in vivo, Wistar rats; conditions: 3, 10, 30 and 60 mg/kg oral, six days
Protocol: A compound is tested in DNBS-induced colitis model in rat essentially as described in a method reported in the literature (Gut. 2002; 50(3):440-1). Briefly, Wistar rats are used in the experiments. Following the induction of distal colitis by intra-colonic instillation of DNBS, the test compound at doses of 3, 10, 30, 60 mg/kg (bid) is administered to rats orally for six days. The negative control group is treated with the vehicle alone without DNBS instillation. The vehicle-control group rats are DNBS-induced and treated with vehicle. In the positive control group, sulfasalazine is orally administered to the rats at 300 mg/kg daily for six consecutive days. Animals are euthanized 24 h after the final treatment. Colon-to-body weight ratio and colonic damage scores are calculated for each animal. Vehicle treatment of rats results in a progressive worsening of clinical symptoms, achieving a maximum colonic damage score of 6.1±0.6 and colon-to-body weight ratio-colon length of 0.96±0.10 on day 7 after instillation. In this DNBS-induced inflammatory bowel disease model, rats treated with Example 2 at doses of 3, 10, 30 and 60 mg/kg show a marked reduction in colonic damage scores, colon-to-body weight-to-colon length ratio with more than 30% reduction.

[3] = molecular target: T1, IKKβ (Homo sapiens, UniProt O14920); assay: IKKβ kinase assay (IKKβ-Inhibitor Screening Kit, ELISA); assay type: biochemical; conditions: IKKβ-Inhibitor Screening Kit (Calbiochem), GST-IκBα substrate
T1 sequence (O14920 1-756): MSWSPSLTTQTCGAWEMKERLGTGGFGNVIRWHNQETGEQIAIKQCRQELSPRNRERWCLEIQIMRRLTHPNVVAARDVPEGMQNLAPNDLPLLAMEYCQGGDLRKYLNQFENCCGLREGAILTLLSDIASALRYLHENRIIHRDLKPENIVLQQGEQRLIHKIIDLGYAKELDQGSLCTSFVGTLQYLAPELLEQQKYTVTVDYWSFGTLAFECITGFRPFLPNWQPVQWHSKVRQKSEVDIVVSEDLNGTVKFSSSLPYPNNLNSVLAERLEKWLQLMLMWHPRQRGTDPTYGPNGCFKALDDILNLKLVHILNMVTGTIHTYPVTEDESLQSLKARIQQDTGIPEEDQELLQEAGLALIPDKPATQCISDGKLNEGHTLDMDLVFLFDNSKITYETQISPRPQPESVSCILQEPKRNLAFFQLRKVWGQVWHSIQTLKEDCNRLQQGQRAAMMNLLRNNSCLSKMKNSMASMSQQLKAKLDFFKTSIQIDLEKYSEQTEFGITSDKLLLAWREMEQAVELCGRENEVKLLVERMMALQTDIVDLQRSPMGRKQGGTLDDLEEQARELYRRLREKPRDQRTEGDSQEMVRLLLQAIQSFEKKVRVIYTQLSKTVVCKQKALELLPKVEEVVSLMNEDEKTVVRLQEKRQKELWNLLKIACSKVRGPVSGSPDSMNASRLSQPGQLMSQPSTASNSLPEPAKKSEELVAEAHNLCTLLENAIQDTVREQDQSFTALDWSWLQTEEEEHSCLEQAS
Protocol: The IKKβ kinase assay is used to assess the effect of a compound of the present invention on the enzymatic activity of IKKβ kinase. The IKKβ kinase assay is performed in vitro using an IKKβ-Inhibitor Screening Kit (Calbiochem., Cat.No. CBA044). All reactions (50 μL) are started by adding 10 μL of kinase buffer (kit component, No. JA9130), 10 μL of GST-IKBa substrate (IKKb substrate, kit component, No. JA9127), 10 μL of IKKβ (2.5 ng/well, kit component, No. 481404), 10 μL of the test compound (DMSO solution) or H2O, and 10 μL of ATP/MgCl2 (kit component, No. JA7914) and then incubating at 30° C. for 30 min. The contents of the wells are then discarded. Each well is washed 3 times with 200 μL 1× wash buffer (kit component, NO. JA1617, 1:20 dilution). 100 μL of anti-phospho IκBα (Ser^32/Ser^36) antibody conjugate (kit component, No. JA9126) is added to each well and incubated at room temperature for 1 h. Then the wells are washed 3 times with 1× wash buffer (kit component, NO. JA1617, 1:20 dilution), […] and 100 μL HRP-conjugate (kit component, No. JA7643) is added to each well and incubated at room temperature for 1 h. Then the wells are washed 3 times with 200 μL 1× wash buffer (kit component, NO. JA1617, 1:20 dilution) and 100 μL TMB substrate conjugate (kit component, No. JA1608) is added to each well. The plate is incubated at room temperature until the color changes. […]

IC50 [3] [nM] | SMILES | body weight loss ([1]; 10 and 30 mg/kg) | ED50 ([1]; Mus musculus, 3, 10, and 30 mg/kg oral twice daily, read-out: ED50, EAE clinical score) [mg/kg] | reduction in colonic damage scores, colon-to-body weight-to-colon length ratio [2]
 | Cl.O=C(NC1CC1)c1cccc2[nH]c(-c3nc(N[C@@H]4CCC[C@H]4O)ncc3Cl)cc12 [Example 2, 2-{5-Chloro-2-[(1R,2R)-2-hydroxycyclopentylamino]pyrimidin-4-yl}-N-cyclopropyl-1H-indole-4-carboxamide hydrochloride] | improves | 3.7 | more than 30%
15 | O=C(NC1CC1)c1cccc2[nH]c(-c3nc(N[C@@H]4CCC[C@@H]4O)ncc3Cl)cc12 [Example 1, 2-{5-Chloro-2-[(1R,2S)-2-hydroxycyclopentylamino]pyrimidin-4-yl}-N-cyclopropyl-1H-indole-4-carboxamide hydrochloride] |  |  | 

Source: patent US8501166B2, “Pyrimidinyl indole compounds” (Hutchison Medipharma Limited, priority 2010, dated 2013)
